The record followed here is US8080664B2, “Use of compounds as inhibitors for Helicobacter flavodoxin” (Universidad De Zaragoza, priority 2007, dated 2011).

One test has as its target T1, H. pylori flavodoxin (Helicobacter pylori, UniProt O25776).
T1 construct: made in house; host or cells: E. coli BL21 (flavodoxin, pET28a); E. coli JVQ2 (PFOR); E. coli BL21(DE3) (FqrB)
T1 sequence (O25776 1-164): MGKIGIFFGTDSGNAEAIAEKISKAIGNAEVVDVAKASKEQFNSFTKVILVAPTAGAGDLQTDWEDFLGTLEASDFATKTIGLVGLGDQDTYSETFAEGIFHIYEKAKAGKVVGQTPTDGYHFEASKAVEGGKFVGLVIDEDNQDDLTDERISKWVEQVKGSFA
The test can be described thus: Inhibition assay of sequential electron transfer pyruvate/PFOR/flavodoxin/FqrB/NADP+ (NADPH formation at 340 nm). It is filed as biochemical. To be noted: 50 μM compound; anaerobic; 10 μM Fld; absorbance at 340 nm. The text has this:
Flavodoxin is an essential protein for Helicobacter pylori survival as it participates in a fundamental reaction for obtaining energy from the oxidative decarboxylation of pyruvate. In this reaction, flavodoxin transfers electrons between the PFOR enzyme and the FqrB enzyme, which releases them to NADP^+.
The sequential reaction of electron transfer between pyruvate, PFOR, flavodoxin, FqrB and NADP^+ (activity assay) was followed spectroscopically by the appearance of the signal at 340 nm with the formation of NADPH. The reaction mixture contained 100 mM potassium phosphate pH 7, 10 mM pyruvate, 0.18 mM CoA, 1 mM MgCl, 0.3 mM NADP^+, 0.09 mg/ml PFOR, 10 μM Fld and 0.15 μM FqrB. The mixture, except CoA, was placed in a cuvette specially designed for anaerobic conditions. Oxygen was removed by means of 5 minute cycles with alternate flows of vacuum and argon. The reaction was started by the addition of 0.18 mM coenzyme A (CoA) that was held in a compartment inside the same cuvette. The reaction finished 15 minutes after adding the CoA reagent.
The inhibition assays were carried out in the same conditions as the activity assays previously described, adding an additional 50 μM of the disclosed compound of the general formula shown in (II) to the reaction cuvette.

The next test deals with T2, flavodoxin of H. pylori (Helicobacter pylori, UniProt O25776).
T2 construct: made in house; host or cells: E. coli BL21 (pET28a)
The test can be described thus: Isothermal titration calorimetry (ITC) binding to flavodoxin. The note with it: 50 mM EPPS buffer, pH 9, 7% DMSO; protein around 20 μM; read-out: affinity for flavodoxin (ITC). The procedure: The specific binding of the inhibitors of the disclosed compounds to flavodoxin of H. pylori was confirmed by isothermal titration calorimetry (ITC). This technique not only measures the affinity of each compound for the target protein, but also determines the contribution of the enthalpic and entropic components of binding.
The binding experiments were carried out in 50 mM EPPS buffer, pH 9 with 7% DMSO, with the inhibitor in the injection syringe at a concentration of 300-500 μM, and the protein around 20 μM in the measurement cell.

In the case of `O=[N+]([O-])C1=Cc2cc(Cl)cc(Cl)c2OC1c1ccc(F)cc1` (centres unmarked) [formula (II)], the “inhibition of NADPH formation (pyruvate oxidative decarboxylation reaction)” value at H. pylori flavodoxin is recorded as “almost total”. Also, the Kd at flavodoxin of H. pylori was 1600 nM.
